Columns and labels:
Assay in all cases: (S)DDA disc diffusion
P. acnes PRP-002 = type: cell-based, Propionibacterium acnes
Procedure: (§1) The propionibacteria were cultured and maintained on Wilkins-Chalgren Anaerobe Medium (agar and broth) at pH 6.0; all cultures were incubated anaerobically at 37° C. for 72 hours.
(§2) A sterile paper disc was impregnated with a sample of the test compound in a suitable solvent and 30 minutes allowed for the solvents to evaporate (where possible). The disc was then placed on an agar plate onto which the test micro-organism had been inoculated. The plate was then incubated under the conditions described above, following which it was examined visually for signs of microbial growth. If the test compound had antimicrobial activity, a circular zone of no growth would be obtained around the disc. The diameter of this zone of “inhibition” was measured using a ProtoCOL™ automated zone sizer (Synbiosis, Cambridge, UK). In general, a greater diameter and/or area of the zone of inhibition indicates a greater antimicrobial activity in the relevant test compound, although other factors such as test compound mobility through the agar gel may also influence the result.
(§3) Two test a compounds A and B were placed on a single paper disc and the above described DDA procedure repeated. An increase in diameter of the zone of inhibition, compared to the greater of the zone diameters for the two compounds individually, was taken to indicate potential antimicrobial synergy. In practical terms, an increase of greater than 5 mm could be treated as significant.
(§4) Both the DDA and the SDDA test may be carried out using an agar gel supplemented with lipid and/or salt to simulate some of the major components present in human skin and to assess whether these substances might reduce the antimicrobial activity observed for the test compound. Performance under these conditions can provide a more reliable indication of activity on topical application. The supplements used in Examples 1, 11, 12 and 13 below were lipid (either Tween™ 80 at 1% v/v (Example 1) or triolein at 1% v/v (Examples 11, 12 and 13) and sodium chloride (100 mM).

P. acnes PRP-017 = type: cell-based, Propionibacterium acnes
Procedure: as §1, §2, §3, §4

P. acnes PRP-102 = type: cell-based, Propionibacterium acnes
Procedure: as §1, §2, §3, §4

P. acnes PRP-039 = type: cell-based, Propionibacterium acnes
Procedure: as §1, §2, §3, §4

P. acnes PRP-046 = type: cell-based, Propionibacterium acnes
Procedure: as §1, §2, §3, §4

P. acnes PRP-004 = type: cell-based, Propionibacterium acnes
Procedure: as §1, §2, §3, §4

P. acnes PRP-010 = type: cell-based, Propionibacterium acnes
Procedure: as §1, §2, §3, §4

P. acnes PRP-101 = type: cell-based, Propionibacterium acnes
Procedure: as §1, §2, §3, §4

P. acnes PRP-068 = type: cell-based, Propionibacterium acnes
Procedure: as §1, §2, §3, §4

P. acnes PRP-008 = type: cell-based, Propionibacterium acnes
Procedure: as §1, §2, §3, §4

P. granulosum PRP-021 = type: cell-based, Propionibacterium granulosum
Procedure: as §1, §2, §3, §4

P. granulosum PRP-043 = type: cell-based, Propionibacterium granulosum
Procedure: as §1, §2, §3, §4

P. granulosum NCTC 11865 = type: cell-based, Propionibacterium granulosum
Procedure: as §1, §2, §3, §4

P. granulosum PRP-044 = type: cell-based, Propionibacterium granulosum
Procedure: as §1, §2, §3, §4

P. granulosum PRP-019 = type: cell-based, Propionibacterium granulosum
Procedure: as §1, §2, §3, §4

P. granulosum PRP-006 = type: cell-based, Propionibacterium granulosum
Procedure: as §1, §2, §3, §4

P. granulosum PRP-055 = type: cell-based, Propionibacterium granulosum
Procedure: as §1, §2, §3, §4

For dioctyl sodium sulphosuccinate [DOSS], the DDA (P. acnes PRP-002; P. acnes PRP-002 (Tet/MLS), 200 μg TCC or 50 μg DOSS per disc) was 31.76 mm, the DDA (P. acnes PRP-002; P. acnes PRP-002, 200 μg per disc) was 49.49 mm and the “DDA + salt” value (P. acnes PRP-002; P. acnes PRP-002, 200 μg per disc, sodium chloride 100 mM) was 51.36 mm. For the same substance, the “DDA + lipid” value (P. acnes PRP-002; P. acnes PRP-002, 200 μg per disc, triolein 1% v/v) was 48.25 mm, the DDA (P. acnes PRP-017; P. acnes PRP-017 (MLS), 200 μg TCC or 50 μg DOSS per disc) was 28.98 mm and the DDA (P. acnes PRP-017; P. acnes PRP-017, 200 μg per disc) was 47.94 mm. The “DDA + salt” value (P. acnes PRP-017; P. acnes PRP-017, 200 μg per disc, sodium chloride 100 mM) was 47.63 mm, the “DDA + lipid” value (P. acnes PRP-017; P. acnes PRP-017, 200 μg per disc, triolein 1% v/v) was 44.82 mm and the DDA (P. acnes PRP-102; P. acnes PRP-102 (Tet/MLS), 200 μg TCC or 50 μg DOSS per disc) was 22.81 mm. The DDA (P. acnes PRP-102; P. acnes PRP-102, 200 μg per disc) was 44.82 mm, the “DDA + salt” value (P. acnes PRP-102; P. acnes PRP-102, 200 μg per disc, sodium chloride 100 mM) was 41.71 mm and the “DDA + lipid” value (P. acnes PRP-102; P. acnes PRP-102, 200 μg per disc, triolein 1% v/v) was 37.98 mm. The DDA (P. acnes PRP-039; P. acnes PRP-039 (Tet/MLS), 200 μg TCC or 50 μg DOSS per disc) was 23.02 mm, the “DDA + salt” value (P. acnes PRP-039; P. acnes PRP-039, 200 μg per disc, sodium chloride 100 mM) was 46.38 mm and the DDA (P. acnes PRP-046; P. acnes PRP-046 (resistance None), 200 μg TCC or 50 μg DOSS per disc) was 25.08 mm. For the same substance, the DDA (P. acnes PRP-046; P. acnes PRP-046, 200 μg per disc) was 44.51 mm, the “DDA + salt” value (P. acnes PRP-046; P. acnes PRP-046, 200 μg per disc, sodium chloride 100 mM) was 47.00 mm and the “DDA + lipid” value (P. acnes PRP-046; P. acnes PRP-046, 200 μg per disc, triolein 1% v/v) was 41.09 mm. For the same substance, the DDA (P. acnes PRP-004; P. acnes PRP-004 (Tet), 200 μg TCC or 50 μg DOSS per disc) was 26.62 mm, the DDA (P. acnes PRP-004; P. acnes PRP-004, 200 μg per disc) was 48.56 mm and the “DDA + salt” value (P. acnes PRP-004; P. acnes PRP-004, 200 μg per disc, sodium chloride 100 mM) was 43.27 mm. The “DDA + lipid” value (P. acnes PRP-004; P. acnes PRP-004, 200 μg per disc, triolein 1% v/v) was 46.07 mm, the DDA (P. acnes PRP-010; P. acnes PRP-010 (MLSK), 200 μg TCC or 50 μg DOSS per disc) was 26.82 mm and the DDA (P. acnes PRP-010; P. acnes PRP-010, 200 μg per disc) was 46.69 mm. The “DDA + salt” value (P. acnes PRP-010; P. acnes PRP-010, 200 μg per disc, sodium chloride 100 mM) was 46.07 mm, the “DDA + lipid” value (P. acnes PRP-010; P. acnes PRP-010, 200 μg per disc, triolein 1% v/v) was 39.84 mm and the DDA (P. acnes PRP-101; P. acnes PRP-101 (Tet/MLS), 200 μg TCC or 50 μg DOSS per disc) was 14.59 mm. For the same substance, the DDA (P. acnes PRP-101; P. acnes PRP-101, 200 μg per disc) was 41.40 mm, the “DDA + lipid” value (P. acnes PRP-101; P. acnes PRP-101, 200 μg per disc, triolein 1% v/v) was 40.47 mm and the DDA (P. acnes PRP-068; P. acnes PRP-068 (Ery), 200 μg TCC or 50 μg DOSS per disc) was 25.59 mm. The DDA (P. acnes PRP-068; P. acnes PRP-068, 200 μg per disc) was 48.87 mm, the “DDA + salt” value (P. acnes PRP-068; P. acnes PRP-068, 200 μg per disc, sodium chloride 100 mM) was 46.69 mm and the “DDA + lipid” value (P. acnes PRP-068; P. acnes PRP-068, 200 μg per disc, triolein 1% v/v) was 44.51 mm. The DDA (P. acnes PRP-008; P. acnes PRP-008 (Clin), 200 μg TCC or 50 μg DOSS per disc) was 24.87 mm, the DDA (P. acnes PRP-008; P. acnes PRP-008, 200 μg per disc) was 48.25 mm and the “DDA + salt” value (P. acnes PRP-008; P. acnes PRP-008, 200 μg per disc, sodium chloride 100 mM) was 48.56 mm. For the same substance, the “DDA + lipid” value (P. acnes PRP-008; P. acnes PRP-008, 200 μg per disc, triolein 1% v/v) was 43.58 mm, the DDA (P. granulosum PRP-021; P. granulosum PRP-021 (MLS), 200 μg TCC or 50 μg DOSS per disc) was 0.00 mm and the DDA (P. granulosum PRP-021; P. granulosum PRP-021, 200 μg per disc) was 39.53 mm. For the same substance, the “DDA + salt” value (P. granulosum PRP-021; P. granulosum PRP-021, 200 μg per disc, sodium chloride 100 mM) was 38.60 mm, the “DDA + lipid” value (P. granulosum PRP-021; P. granulosum PRP-021, 200 μg per disc, triolein 1% v/v) was 42.02 mm and the DDA (P. granulosum PRP-043; P. granulosum PRP-043 (MLS), 200 μg TCC or 50 μg DOSS per disc) was 8.94 mm. For the same substance, the DDA (P. granulosum PRP-043; P. granulosum PRP-043, 200 μg per disc) was 40.16 mm, the “DDA + salt” value (P. granulosum PRP-043; P. granulosum PRP-043, 200 μg per disc, sodium chloride 100 mM) was 35.80 mm and the “DDA + lipid” value (P. granulosum PRP-043; P. granulosum PRP-043, 200 μg per disc, triolein 1% v/v) was 35.18 mm. For the same substance, the DDA (P. granulosum NCTC 11865; P. granulosum NCTC 11865 (resistance None), 200 μg TCC or 50 μg DOSS per disc) was 14.70 mm, the DDA (P. granulosum NCTC 11865; P. granulosum NCTC 11865, 200 μg per disc) was 39.84 mm and the “DDA + salt” value (P. granulosum NCTC 11865; P. granulosum NCTC 11865, 200 μg per disc, sodium chloride 100 mM) was 37.98 mm. For the same substance, the “DDA + lipid” value (P. granulosum NCTC 11865; P. granulosum NCTC 11865, 200 μg per disc, triolein 1% v/v) was 38.60 mm, the DDA (P. granulosum PRP-044; P. granulosum PRP-044 (MLS), 200 μg TCC or 50 μg DOSS per disc) was 0.00 mm and the DDA (P. granulosum PRP-044; P. granulosum PRP-044, 200 μg per disc) was 38.29 mm. For the same substance, the “DDA + salt” value (P. granulosum PRP-044; P. granulosum PRP-044, 200 μg per disc, sodium chloride 100 mM) was 37.67 mm, the “DDA + lipid” value (P. granulosum PRP-044; P. granulosum PRP-044, 200 μg per disc, triolein 1% v/v) was 35.49 mm and the DDA (P. granulosum PRP-019; P. granulosum PRP-019 (MLSK), 200 μg TCC or 50 μg DOSS per disc) was 19.94 mm. The DDA (P. granulosum PRP-019; P. granulosum PRP-019, 200 μg per disc) was 41.71 mm, the “DDA + salt” value (P. granulosum PRP-019; P. granulosum PRP-019, 200 μg per disc, sodium chloride 100 mM) was 42.02 mm and the “DDA + lipid” value (P. granulosum PRP-019; P. granulosum PRP-019, 200 μg per disc, triolein 1% v/v) was 42.65 mm. The DDA (P. granulosum PRP-006; P. granulosum PRP-006 (MLS), 200 μg TCC or 50 μg DOSS per disc) was 19.01 mm, the DDA (P. granulosum PRP-006; P. granulosum PRP-006, 200 μg per disc) was 40.47 mm and the “DDA + salt” value (P. granulosum PRP-006; P. granulosum PRP-006, 200 μg per disc, sodium chloride 100 mM) was 41.09 mm. The “DDA + lipid” value (P. granulosum PRP-006; P. granulosum PRP-006, 200 μg per disc, triolein 1% v/v) was 40.16 mm, the DDA (P. granulosum PRP-055; P. granulosum PRP-055 (resistance None), 200 μg TCC or 50 μg DOSS per disc) was 10.07 mm and the DDA (P. granulosum PRP-055; P. granulosum PRP-055, 200 μg per disc) was 40.16 mm. For the same substance, the “DDA + salt” value (P. granulosum PRP-055; P. granulosum PRP-055, 200 μg per disc, sodium chloride 100 mM) was 38.29 mm and the “DDA + lipid” value (P. granulosum PRP-055; P. granulosum PRP-055, 200 μg per disc, triolein 1% v/v) was 36.42 mm.

Source: US20100273876A1, “ANTIBACTERIAL FORMULATION COMPRISING A DIALKYL SULPHOSUCCINATE AND A CARBANILIDE ANTIBACTERIAL AGENT” (priority 2007, published 2010)
